{
  "source": "patent US20090069424A1",
  "about": "“TGF-alpha expression inhibitors” (NIKKEN CHEMICALS CO., LTD., priority 2002, published 2009)",
  "key": {"[1]": {"test_system": "TGF-α expression in oval cells", "assay": "Induction of TGF-α positive oval cells of a rat by 3′-MeDAB, anti TGF-α immunohistological staining of liver", "type": "in vivo", "experimental": "Male Fischer rats (F344/N Slc, 6-week old) were used as an animal, and the rats were given with solid feed prepared to contain a hepatic chemical carcinogen 3′-MeDAB in a ratio of 0.06% for four weeks to induce oval cells. NIK-333 was suspended in soybean oil, and a dose of 80 mg/kg was orally administered to each rat for four weeks (once/a day) along with the administration of 3′-MeDAB. To a control group, soybean oil (5 mL/kg) was orally administered. After 4 weeks from the start of the administration of 3′-MeDAB, livers were extirpated under anesthesia. The livers were subjected to 10% formalin fixation and paraffin embedding, and further to immunological staining by using an anti TGF-α antibody. TGF-α expression levels were analyzed under microscope.\nFIGS. 1 to 3 are photographs showing inhibitory effects on induction of TGF-α positive oval cells induced by the four-week administration of 3′-MeDAB, when 80 mg/kg/day of NIK-333 was simultaneously administered for four weeks (immunohistological staining by using the anti TGF-α antibody). Similar observations were obtained in other animals which were analyzed at the same time."}, "[2]": {"test_system": "TGF-α expression in non-tumor hepatic tissue", "assay": "TGF-α expression in non-tumor hepatic tissue of a rat after DEN administration, anti TGF-α immunohistological staining", "type": "in vivo", "details": "80 mg/kg/day orally for 14 weeks from one week after 5-week DEN; control strongly positive; FIGS. 6 and 9", "experimental": "Male Fischer rats (F344/N Slc, 6-week old) were used as an animal, and the rats were administered with a hepatic chemical carcinogen DEN for 5 weeks in a form of drinking water (concentration: 40 ppm), and then bred with normal drinking water for successive 15 weeks to induce hepatocellular carcinoma. NIK-333 was suspended in soybean oil, and a dose of 80 mg/kg was orally administered to each rat for 14 weeks (once/a day) from one week after the end of the administration of DEN. To a control group, soybean oil (5 mL/kg) was orally administered. After 20 weeks from the start of the administration of DEN, livers were extirpated under anesthesia. The livers were subjected to 10% formalin fixation and paraffin embedding, and further to immunological staining by using an anti TGF-α antibody. TGF-α expression levels were analyzed under microscope.\nFIGS. 4 to 6 are photographs showing inhibitory effects on TGF-α expression in a non-tumor hepatic tissue, when the administration was ceased for one week after the 5-week treatment with DEN, and then 80 mg/kg/day of NIK-333 was administered for 14 weeks (immunohistological staining by using an anti TGF-α antibody). Similar observations were obtained in other animals which were analyzed at the same time."}, "[3]": {"test_system": "TGF-α expression in oval cells", "assay": "TGF-α expression in oval cells in a rat induced by D-galactosamine hydrochloride, anti TGF-α immunohistological staining", "type": "in vivo", "details": "200 mg/kg/day orally for four days; control strongly positive; FIG. 15", "experimental": "Male SD rats (Crj/CD (SD), 6-week old) were used as an animal, and D-galactosamine hydrochloride (5 ml/kg) prepared as 200 mg/mL with physiological saline was intraperitoneally administered once to each rat to induce oval cells. NIK-333 was suspended in soybean oil, and a dose of 200 mg/kg was orally administered to each rat for 1 to 6 days. To the control group, soybean oil (2 mL/kg) was orally administered. From the next day to 7 days after the start of the administration, the livers were extirpated under anesthesia with passage of time. The livers were subjected to 10% formalin fixation and paraffin embedding, and further to immunological staining by using an anti TGF-α antibody. TGF-α expression levels were analyzed under microscope.\nFIGS. 13 to 15 are photographs showing inhibitory effects on TGF-α expression in oval cells induced by the administration of D-galactosamine hydrochloride, when 200 mg/kg/day of NIK-333 was administered for four days (immunohistological staining using an anti TGF-α antibody). Similar observations were obtained in other animals which were analyzed at the same time."}, "[4]": {"test_system": "hepatoma", "details": "clinical, cited from earlier work"}},
  "data": [
    {"smiles": "CC(C)=CCC/C(C)=C/CC/C(C)=C/C=C/C(C)=C/C(=O)O", "note": "[NIK-333, (2E,4E,6E,10E)-3,7,11,15-tetramethyl-2,4,6,10,14-hexadecapentaenoic acid]", "values": [
      {"measurement": "TGF-α observation of oval cells expressed with 3′-MeDAB", "setting": "[1]; 80 mg/kg/day orally for four weeks along with 0.06% 3′-MeDAB feed, control strongly positive, FIG. 3", "result": "weakly positive"},
      {"measurement": "number of oval cells with strongly positive TGF-α observation, expressed with 3′-MeDAB", "setting": "[1]; 80 mg/kg/day orally for four weeks along with 3′-MeDAB, versus control, FIG. 12", "result": "reduced"},
      {"measurement": "TGF-α observation in hepatic tissues surrounding the central vein, expressed by DEN", "setting": "[2]", "result": "almost negative"},
      {"measurement": "TGF-α observation of oval cells expressed by D-galactosamine hydrochloride", "setting": "[3]", "result": "weakly positive"},
      {"measurement": "side effect such as dysfunction of liver and those with other retinoids", "setting": "[4]; during one-year administration", "result": "almost no side effect"},
      {"measurement": "recurrence after radical cure of hepatoma", "setting": "[4]; long-term administration for one year", "result": "significantly suppressed"}
    ]}
  ]
}
